Assay results taken from patent US11564912B2, “Methods for treating irritable bowel syndrome (IBS)” (Salix Pharmaceuticals, Inc., priority 2008, dated 2023).

Experiments:
[1] = test system: patients with nonconstipation irritable bowel syndrome (non-C IBS); assay: Trial of rifaximin 550 mg TID for 14 days with 10-week follow-up (Example 5; Study 2 of Example 6); assay type: in vivo, human
Text: A measure of efficacy is based on subjects' answers to the Weekly Subject Global Assessment (SGA) questions over the 4 week study duration in relation to their IBS symptoms. […] Another measure of efficacy is based on subjects' answers to the Weekly Subject Global Assessment (SGA) question over the 4 week study duration in relation to their IBS symptom of bloating. The SGA question is asked weekly as follows: “In the past 7 days, have you had adequate relief of your IBS symptom of bloating?” (Yes/No). […] Other measures of efficacy include the changes in dIBS symptoms from baseline to each week of the 4 weeks in the study (e.g., abdominal pain and discomfort, bloating, number of stools per day, stool consistency, urgency with loose or watery stools).
The primary efficacy endpoint of the study was the proportion of subjects who achieve adequate relief of IBS symptoms for at least 2 weeks during 10 the first 4 weeks of the 10-week follow-up phase.
Two measures of efficacy were assessed.
Subjects were questioned on the relief of overall IBS symptoms and bloating. […] The analyses defined success as a “yes” response to questions regarding adequate relief.
Assessment (SGA) questions over the 4 week study duration in relation to their IBS symptoms. […] Another measure of efficacy is based on subjects' answers to the Weekly Subject Global Assessment (SGA) question over the 4 week study duration in relation to their IBS symptom of bloating. The SGA question is asked weekly as follows: “In the past 7 days, have you had adequate relief of your IBS symptom of bloating'?” (Yes/No).
All subpopulations in the study responded to therapy. Baseline severity was determined during screening for Abdominal Pain/Discomfort and Bloating, and the number, type (normal, hard, loose) and urgency of bowel movements. Duration of effect was assessed in a ten week follow-up period.
(§1) A measure of efficacy is based on subjects' answers to the Weekly Subject Global Assessment (SGA) questions over the study duration in relation to their IBS symptoms.

[2] = test system: subjects with dIBS; assay: Study of rifaximin BID in subjects with dIBS: adequate relief of IBS symptoms and bloating; assay type: in vivo, human; conditions: rifaximin 550 mg BID 14 days, patients with dIBS
[3] = test system: species of Staphylococcus, Streptococcus, Enterococcus, and Enterobacteriaceae; conditions: cited from earlier work
[4] = oral administration; Descombe et al. 1994; cited from earlier work
[5] = as previously disclosed by Applicants; cited from earlier work
[6] = test system: subjects with IBS; assay: Study 1 of rifaximin 550 mg TID for 14 days, analysis after 3 months; assay type: in vivo, human
Text: as §1

[7] = test system: patients with nonconstipation irritable bowel syndrome (non-C IBS); assay: Trial of rifaximin 550 mg TID for 14 days with 10-week follow-up (Example 5; Study 2 of Example 6); assay type: in vivo, human; remark: listed apart in the source
[8] = Age Group: <65, Rifaximin 550 mg TID (N = 281)
[9] = Age Group: >=65, Rifaximin 550 mg TID
[10] = Gender: Female, Rifaximin 550 mg TID (N = 226)
[11] = Gender: Male, Rifaximin 550 mg TID (N = 85)
[12] = IBS Subtype: Alternating-predominant, Rifaximin 550 mg TID
[13] = IBS Subtype: Diarrhoea-predominant, Rifaximin 550 mg TID
[14] = Population: ITT, Rifaximin 550 mg TID (N = 315)
[15] = Population: PP, Rifaximin 550 mg TID (N = 311)
[16] = Population: PP, Rifaximin 550 mg TID (N = 311), Weeks 3 through 6
[17] = Race: Non-White, Rifaximin 550 mg TID (N = 31)
[18] = Race: White, Rifaximin 550 mg TID (N = 280)
[19] = Rifaximin 550 mg TID (N = 315), weekly SGA, at least 2 of Weeks 3 through 6, LOCF
[20] = Study 2, at least 2 out of 4 weeks adequate relief during weeks 3 through 6 (weekly question)
[21] = Study 2, at least 2 weeks during PEP
[22] = at least 2 out of 4 weeks adequate relief during weeks 3 through 6 (weekly question)

## (2S,16Z,18E,20S,21S,22R, 23R,24R,25S,26S,27S,28E)-5,6,21,23,25 Pentahydroxy-27-methoxy -2,4,11,16,20,22,24,26-octamethyl-2,7-(epoxypentadeca-(1,11,13)trienimino)benzofuro (4,5-e) pyrido(1,2,-a) benzimidazole-1,15(2H)-dione,25-acetate [Rifaximin]
[1]; 550 mg TID for 2 weeks
  Adequate relief of IBS related symptoms (SGA) and IBS-related bloating (IBS-B): statistically significant relief
[1]; [8]
  Adequate Relief of IBS symptom of Bloating: Failure: 171 (60.9%) N (%)
  Adequate Relief of IBS symptom of Bloating: Success: 110 (39.1%) N (%)
  Adequate Relief of IBS symptoms: Failure: 171 (60.9%) N (%)
  Adequate Relief of IBS symptoms: Success: 110 (39.1%) N (%)
[1]; [9]
  Adequate Relief of IBS symptom of Bloating: Failure: 16 (53.3%) N (%)
  Adequate Relief of IBS symptom of Bloating: Success: 14 (46.7%) N (%)
  Adequate Relief of IBS symptoms: Failure: 16 (53.3%) N (%)
  Adequate Relief of IBS symptoms: Success: 14 (46.7%) N (%)
[1]; [10]
  Adequate Relief of IBS symptom of Bloating: Failure: 128 (56.6%) N (%)
  Adequate Relief of IBS symptom of Bloating: Success: 98 (43.4%) N (%)
  Adequate Relief of IBS symptoms: Failure: 130 (57.5%) N (%)
  Adequate Relief of IBS symptoms: Success: 96 (42.5%) N (%)
[1]; [11]
  Adequate Relief of IBS symptom of Bloating: Failure: 59 (69.4%) N (%)
  Adequate Relief of IBS symptom of Bloating: Success: 26 (30.6%) N (%)
  Adequate Relief of IBS symptoms: Failure: 57 (67.1%) N (%)
  Adequate Relief of IBS symptoms: Success: 28 (32.9%) N (%)
[1]; [12]
  Adequate Relief of IBS symptom of Bloating: Failure: 19 (55.9%) N (%)
  Adequate Relief of IBS symptom of Bloating: Success: 15 (44.1%) N (%)
  Adequate Relief of IBS symptoms: Failure: 21 (61.8%) N (%)
  Adequate Relief of IBS symptoms: Success: 13 (38.2%) N (%)
[1]; [13]
  Adequate Relief of IBS symptom of Bloating: Failure: 168 (60.6%) N (%)
  Adequate Relief of IBS symptom of Bloating: Success: 109 (39.4%) N (%)
  Adequate Relief of IBS symptoms: Failure: 166 (59.9%) N (%)
  Adequate Relief of IBS symptoms: Success: 111 (40.1%) N (%)
[1]; [14]
  Adequate Relief of IBS symptom of Bloating Based on Daily Measures: Failure: 182 (57.8%) N (%)
  Adequate Relief of IBS symptom of Bloating Based on Daily Measures: Success: 133 (42.2%) N (%)
  Adequate Relief of IBS symptoms Based on Daily Measures: Failure: 200 (63.5%) N (%)
  Adequate Relief of IBS symptoms Based on Daily Measures: Success: 115 (36.5%) N (%)
[1]; [15]
  Adequate Relief of IBS symptom of Bloating Based on Daily Measures: Failure: 180 (57.9%) N (%)
  Adequate Relief of IBS symptom of Bloating Based on Daily Measures: Success: 131 (42.1%) N (%)
  Adequate Relief of IBS symptoms Based on Daily Measures: Failure: 196 (63.0%) N (%)
  Adequate Relief of IBS symptoms Based on Daily Measures: Success: 115 (37.0%) N (%)
[1]; [16]
  Adequate Relief of IBS symptom of Bloating: Failure: 187 (60.1%) N (%)
  Adequate Relief of IBS symptom of Bloating: Success: 124 (39.9%) N (%)
  Adequate Relief of IBS symptoms: Failure: 187 (60.1%) N (%)
  Adequate Relief of IBS symptoms: Success: 124 (39.9%) N (%)
[1]; [17]
  Adequate Relief of IBS symptom of Bloating: Failure: 17 (54.8%) N (%)
  Adequate Relief of IBS symptom of Bloating: Success: 14 (45.2%) N (%)
  Adequate Relief of IBS symptoms: Failure: 16 (51.6%) N (%)
  Adequate Relief of IBS symptoms: Success: 15 (48.4%) N (%)
[1]; [18]
  Adequate Relief of IBS symptom of Bloating: Failure: 170 (60.7%) N (%)
  Adequate Relief of IBS symptom of Bloating: Success: 110 (39.3%) N (%)
  Adequate Relief of IBS symptoms: Failure: 171 (61.1%) N (%)
  Adequate Relief of IBS symptoms: Success: 109 (38.9%) N (%)
[1]; [19]
  Adequate Relief of IBS symptom of Bloating: Failure: 190 (60.3%) n (%)
  Adequate Relief of IBS symptom of Bloating: Success: 125 (39.7%) n (%)
  Adequate Relief of IBS symptoms: Failure: 190 (60.3%) n (%)
  Adequate Relief of IBS symptoms: Success: 125 (39.7%) n (%)
[1]; Study 2, <2 for at least 50% of days in a week for at least 2 weeks during PEP
  Daily abdominal pain <2, responders: 39%
[1]; [20]
  Global IBS symptoms, responders: 41%
  IBS symptom of Bloating, responders: 41%
[1]; [21]
  Abdominal Pain reduction of 2 point in mean, responders: 25%
  Abdominal Pain reduction of 2 point in median, responders: 41%
  Abdominal Pain reduction of 3 point in mean, responders: 6% vs 7%
  Abdominal Pain reduction of 3 point in median, responders: 21%
  Overall reduction of mean weekly abdominal pain by >=25%, responders: 58%
  Overall reduction of mean weekly abdominal pain by >=50%, responders: 35%
  Overall reduction of mean weekly abdominal pain by >=75%, responders: 14%
  Overall reduction of median weekly abdominal pain by >=25%, responders: 62%
  Overall reduction of median weekly abdominal pain by >=50%, responders: 44%
  Overall reduction of median weekly abdominal pain by >=75%, responders: 20%
[1]; Study 2, weekly mean vs baseline for at least 2 weeks during PEP
  Abdominal pain reduction of 1 point in mean, responders: 52%
[1]; Study 2, weekly median vs baseline for at least 2 weeks during PEP
  Abdominal pain reduction of 1 point in median, responders: 62%
[1]; Week 1, Rifaximin 550 mg TID
  % with decrease in SF (stool frequency): 14.4%
[1]; Week 2, Rifaximin 550 mg TID
  % with decrease in SF (stool frequency): 20.6%
[1]; Week 3, Rifaximin 550 mg TID
  % with decrease in SF (stool frequency): 22.2%
[1]; Week 4, Rifaximin 550 mg TID
  % with decrease in SF (stool frequency): 21.6%
[1]; Week 5, Rifaximin 550 mg TID
  % with decrease in SF (stool frequency): 25.7%
[1]; Week 6, Rifaximin 550 mg TID
  % with decrease in SF (stool frequency): 22.9%
[1]; Week 7, Rifaximin 550 mg TID
  % with decrease in SF (stool frequency): 23.8%
[1]; Week 8, Rifaximin 550 mg TID
  % with decrease in SF (stool frequency): 24.4%
[1]; Week 9, Rifaximin 550 mg TID
  % with decrease in SF (stool frequency): 25.4%
[1]; Week 10, Rifaximin 550 mg TID
  % with decrease in SF (stool frequency): 26.7%
[1]; Week 11, Rifaximin 550 mg TID
  % with decrease in SF (stool frequency): 25.4%
[1]; Week 12, Rifaximin 550 mg TID
  % with decrease in SF (stool frequency): 27.0%
[2]
  Tolerability, incidence of adverse events compared with placebo: well tolerated
[3]
  In vitro antibacterial activity: active
[4]
  Systemic absorption: negligible
[5]
  Rifaximin exposure in healthy subjects compared with subjects having hepatic encephalopathy: significantly lower
[6]; <2 for at least 50% of days in a week for at least 2 weeks during PEP
  Daily abdominal pain <2, responders: 40%
[6]; [22]
  Global IBS symptoms, responders: 41%
  IBS symptom of Bloating, responders: 40%
[6]; at least 2 weeks during PEP
  Abdominal Pain reduction of 2 point in mean, responders: 26%
  Abdominal Pain reduction of 2 point in median, responders: 37%
  Abdominal Pain reduction of 3 point in mean, responders: 6% vs 7%
  Abdominal Pain reduction of 3 point in median, responders: 22%
  Overall reduction of mean weekly abdominal pain by >=25%, responders: 56%
  Overall reduction of mean weekly abdominal pain by >=50%, responders: 36%
  Overall reduction of mean weekly abdominal pain by >=75%, responders: 14%
  Overall reduction of median weekly abdominal pain by >=25%, responders: 63%
  Overall reduction of median weekly abdominal pain by >=50%, responders: 44%
  Overall reduction of median weekly abdominal pain by >=75%, responders: 23%
[6]; weekly mean vs baseline for at least 2 weeks during PEP
  Abdominal pain reduction of 1 point in mean, responders: 52%
[6]; weekly median vs baseline for at least 2 weeks during PEP
  Abdominal pain reduction of 1 point in median, responders: 63%
[7]; 550 mg rifaximin TID
  Subjects with skin or subcutaneous tissue disorders: 1.3%
[7]; Rifaximin 550 mg TID, randomized subjects (316)
  Early discontinuation of study, primary reason Adverse Event/Serious Adverse Event: 0 n (%)
